The numbers were not newly measured in patent US20110086070A1, “Orally disintegrating compositions of rhein or diacerein” (priority 2008, published 2011), which cites them from elsewhere.

The structures appear in SMILES notation. Where a name gives a salt, the structure may show the parent alone.

For data set [1] the following is noted: oral route.

For `CC(=O)Oc1cccc2c1C(=O)c1c(OC(C)=O)cc(C(=O)O)cc1C2=O` [potassium salt of diacerein], the solubility in water result (water, disclosed in EP 243,968) is “water-soluble”.

On to `CC(=O)Oc1cccc2c1C(=O)c1c(OC(C)=O)cc(C(=O)O)cc1C2=O` [Diacerein, 4,5-bis(acetyloxy)9,10-dihydro-4,5-dihydroxy-9,10-dioxo-2-anthracenecarboxylic acid], for which, for the setting “solvents such as water, alcohols, acetone, dichloromethane and chloroform”, the solubility in solvents entry is recorded as “practically insoluble”. Besides, the “absorption by the digestive tract” value in data set [1] is “cannot be completely absorbed”.
